# According to patent US20100197724A1, “6.5 -PYRROLOPIPERIDINE TACHYKININ RECEPTOR ANTAGONISTS” (priority 2007, published 2010):
# Target: T1, human neurokinin-1 receptor (NK1R) (Homo sapiens, UniProt P25103)
# T1 construct: expressed in transfected cells
# Assay: 125I-substance P binding assay of human NK1R expressed in COS or CHO cells
# Settings: competition with 125I-substance P
# Description: Receptor Expression in COS: To express the cloned human neurokinin-1 receptor (NK1R) transiently in COS, the cDNA for the human NK1R was cloned into the expression vector pCDM9 which was derived from pCDM8 (INVITROGEN) by inserting the ampicillin resistance gene (nucleotide 1973 to 2964 from BLUESCRIPT SK+) into the Sac II site. Transfection of 20 ug of the plasmid DNA into 10 million COS cells was achieved by electroporation in 800 ul of transfection buffer (135 mM NaCl, 1.2 mM CaCl2, 1.2 mM MgCl2, 2.4 mM K2HPO4, 0.6 mM KH2PO4, 10 mM glucose, 10 mM HEPES pH 7.4) at 260 V and 950 uF using the IBI GENEZAPPER (IBI, New Haven, Conn.). The cells were incubated in 10% fetal calf serum, 2 mM glutamine, 100 U/ml penicillin-streptomycin, and 90% DMEM media (GIBCO, Grand Island, N.Y.) in 5% CO2 at 37° C. for three days before the binding assay.
# Stable Expression in CHO: To establish a stable cell line expressing the cloned human NK1R, the cDNA was subcloned into the vector pRcCMV (INVITROGEN). Transfection of 20 ug of the plasmid DNA into CHO cells was achieved by electroporation in 800 ul of transfection buffer supplemented with 0.625 mg/ml Herring sperm DNA at 300 V and 950 uF using the IBI GENEZAPPER (IBI). The transfected cells were incubated in CHO media [10% fetal calf serum, 100 U/ml penicillin-streptomycin, 2 mM glutamine, 1/500 hypoxanthine-thymidine (ATCC), 90% IMDM media (JRH BIOSCIENCES, Lenexa, Kans.), 0.7 mg/ml G418 (GIBCO)] in 5% CO2 at 37° C. until colonies were visible. Each colony was separated and propagated. The cell clone with the highest number of human NK1R was selected for subsequent applications such as drug screening.
# Assay Protocol using COS or CHO: The binding assay of human NK1R expressed in either COS or CHO cells is based on the use of ^125I-substance P (^125I-SP, from DU PONT, Boston, Mass.) as a radioactively labeled ligand which competes with unlabeled substance P or any other ligand for binding to the human NK1R. Monolayer cell cultures of COS or CHO were dissociated by the non-enzymatic solution (SPECIALTY MEDIA, Lavallette, N.J.) and resuspended in appropriate volume of the binding buffer (50 mM Tris pH 7.5, 5 mM MnCl2, 150 mM NaCl, 0.04 mg/ml bacitracin, 0.004 mg/ml leupeptin, 0.2 mg/ml BSA, 0.01 mM phosphoramidon) such that 200 ul of the cell suspension would give rise to about 10,000 cpm of specific ^125I-SP binding (approximately 50,000 to 200,000 cells). In the binding assay, 200 ul of cells were added to a tube containing 20 ul of 1.5 to 2.5 nM of ^125I-SP and 20 ul of unlabeled substance P or any other test compound. The tubes were incubated at 4° C. or at room temperature for 1 hour with gentle shaking. The bound radioactivity was separated from unbound radioactivity by GF/C filter (BRANDEL, Gaithersburg, Md.) which was pre-wetted with 0.1% polyethylenimine. The filter was washed with 3 ml of wash buffer (50 mM Tris pH 7.5, 5 mM MnCl2, 150 mM NaCl) three times and its radioactivity was determined by gamma counter. The activation of phospholipase C by NK1R may also be measured in CHO cells expressing the human NK1R by determining the accumulation of inositol monophosphate which is a degradation product of IP3. CHO cells are seeded in 12-well plate at 250,000 cells per well. After incubating in CHO media for 4 days, cells are loaded with 0.025 uCi/ml of ^3H-myoinositol by overnight incubation. The extracellular radioactivity is removed by washing with phosphate buffered saline. LiCl is added to the well at final concentration of 0.1 mM with or without the test compound, and incubation is continued at 37° C. for […]. Substance P is added to the well at final concentration of 0.3 nM to activate the human NK1R. After 30 min of incubation at 37° C., the media is removed and 0.1 N HCl is added. Each well is sonicated at 4° C. and extracted with CHCl3/methanol (1:1). The aqueous phase is applied to a 1 ml Dowex AG 1X8 ion exchange column. […]
# T1 sequence (P25103 whole entry): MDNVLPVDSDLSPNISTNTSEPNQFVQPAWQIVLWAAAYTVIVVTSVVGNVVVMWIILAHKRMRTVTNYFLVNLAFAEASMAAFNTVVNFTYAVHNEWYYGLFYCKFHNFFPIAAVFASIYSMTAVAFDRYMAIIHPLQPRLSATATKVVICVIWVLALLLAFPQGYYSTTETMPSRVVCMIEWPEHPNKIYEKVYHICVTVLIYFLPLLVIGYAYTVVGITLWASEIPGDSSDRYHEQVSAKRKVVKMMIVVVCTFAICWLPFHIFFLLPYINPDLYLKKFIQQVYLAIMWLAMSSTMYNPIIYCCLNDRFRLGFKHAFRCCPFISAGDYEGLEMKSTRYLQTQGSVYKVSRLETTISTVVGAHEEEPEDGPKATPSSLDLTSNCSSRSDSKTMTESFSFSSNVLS
row,SMILES,IC50 [pM]
1,"Cc1ccccc1[C@H]1[C@@H]2CN(CC(=O)O)C[C@H]2CCN1C(=O)N(C)[C@H](C)c1cc(C(F)(F)F)cc(C(F)(F)F)c1 [Example 16, [(3aS,4R,7aS)-5-{[{(1R)-1-[3,5-bis(trifluoromethyl)phenyl]ethyl}(methyl)amino]carbonyl}-4-(2-methylphenyl)octahydro-2H-pyrrolo[3,4-c]pyridin-2-yl]acetic acid]",152
2,"Cc1ccccc1[C@H]1[C@@H]2CN(C3CCOCC3)C[C@H]2CCN1C(=O)N(C)[C@H](C)c1cc(C(F)(F)F)cc(C(F)(F)F)c1 [Example 21, (3aS,4R,7aS)-N-{(1R)-1-[3,5-bis(trifluoromethyl)phenyl]ethyl}-N-methyl-4-(2-methylphenyl)-2-(tetrahydro-2H-pyran-4-yl)octahydro-5H-pyrrolo[3,4-c]pyridine-5-carboxamide]",85
3,"CC(C(=O)N1CC[C@@H]2CN(C3=CC(=O)CC3)CC2[C@@H]1c1ccc(F)cc1)c1cc(C(F)(F)F)cc(C(F)(F)F)c1 (mixture of isomers) [Example 2, 3-[(3aSR,4RS,7aSR)-5-{2-[3,5-bis(trifluoromethyl)phenyl]propanoyl}-4-(4-fluorophenyl)octahydro-2H-pyrrolo[3,4-c]pyridin-2-yl]cyclopent-2-en-1-one]",250
4,Cc1ccccc1[C@H]1C2CN(CC(C)(C)CO)C[C@H]2CCN1C(=O)N(C)[C@H](C)c1cc(C(F)(F)F)cc(C(F)(F)F)c1 (stereo partly drawn) [Example 23],94
5,CC(C)(C(=O)N1CC[C@@H]2CN(C3=CC(=O)CC3)C[C@H]2[C@@H]1c1ccc(F)cc1)c1cc(C(F)(F)F)cc(C(F)(F)F)c1 (racemic) [Example 4],170
6,"Cc1ccccc1[C@H]1[C@@H]2CN(CC(N)=O)C[C@H]2CCN1C(=O)N(C)[C@H](C)c1cc(C(F)(F)F)cc(C(F)(F)F)c1 [Example 15, (3aS,4R,7aS)-2-(2-amino-2-oxoethyl)-N-{(1R)-1-[3,5-bis(trifluoromethyl)phenyl]ethyl}-N-methyl-4-(2-methylphenyl)octahydro-5H-pyrrolo[3,4-c]pyridine-5-carboxamide]",71
7,Cc1cc(F)ccc1[C@H]1C2CN(C3=CC(=O)OC3)C[C@H]2CCN1C(=O)N(C)[C@H](C)c1cc(C(F)(F)F)cc(C(F)(F)F)c1 (stereo partly drawn) [Example 29],115
8,"Cc1cc(F)ccc1[C@H]1[C@@H]2CN(C(=O)[C@H](C)O)C[C@H]2CCN1C(=O)N(C)[C@H](C)c1cc(C(F)(F)F)cc(C(F)(F)F)c1 [Example 30, (3aS,4R,7aS)-N-{(1R)-1-[3,5-bis(trifluoromethyl)phenyl]ethyl}-4-(4-fluoro-2-methylphenyl)-2-[(2S)-2-hydroxypropanoyl]-N-methyloctahydro-5H-pyrrolo[3,4-c]pyridine-5-carboxamide]",72
9,"Cc1ccccc1[C@H]1[C@@H]2CN(Cc3ccccc3)C[C@H]2CCN1C(=O)N(C)[C@H](C)c1cc(C(F)(F)F)cc(C(F)(F)F)c1 [Example 8, (3aS,4R,7aS)-2-benzyl-N-{(1R)-1-[3,5-bis(trifluoromethyl)phenyl]ethyl}-N-methyl-4-(2-methylphenyl)octahydro-5H-pyrrolo[3,4-c]pyridine-5-carboxamide]",1190
10,"CC(=O)N1CC2[C@H](CCN(C(=O)N(C)[C@H](C)c3cc(C(F)(F)F)cc(C(F)(F)F)c3)[C@H]2c2ccccc2C)C1 (stereo partly drawn) [Example 18, (3aS,4R,7aS)-2-acetyl-N{(1R)-1-[3,5-bis(trifluoromethyl)phenyl]ethyl}-N-methyl-4-(2-methylphenyl)octahydro-5H-pyrrolo[3,4-c]pyridine-5-carboxamide]",68
11,"Cc1cc(F)ccc1[C@H]1[C@@H]2CN(C3=NC(=O)CO3)C[C@H]2CCN1C(=O)N(C)[C@H](C)c1cc(C(F)(F)F)cc(C(F)(F)F)c1 [Example 28, (3aS,4R,7aS)-N-{(1R)-1-[3,5-bis(trifluoromethyl)phenyl]ethyl}-4-(4-fluoro-2-methylphenyl)-N-methyl-2-(4-oxo-4,5-dihydro-1,3-oxazol-2-yl)octahydro-5H-pyrrolo[3,4-c]pyridine-5-carboxamide]",77
12,"O=C(CN1CCOC1=O)N1C[C@H]2CCN(C(=O)Cc3cc(C(F)(F)F)cc(C(F)(F)F)c3)[C@@H](c3ccc(F)cc3)[C@@H]2C1 (racemic) [Example 5, 3-{2-[(3aSR,4RS,7aSR)-5-{[3,5-bis(trifluoromethyl)phenyl]acetyl}-4-(4-fluorophenyl)octahydro-2H-pyrrolo[3,4-c]pyridin-2-yl]-2-oxoethyl}-1,3-oxazolidin-2-one]",3500
13,"CC(=O)N1CCC(N2C[C@H]3CCN(C(=O)N(C)[C@H](C)c4cc(C(F)(F)F)cc(C(F)(F)F)c4)[C@@H](c4ccccc4C)[C@@H]3C2)CC1 [Example 22, (3aS,4R,7aS)-2-(1-acetylpiperidin-4-yl)-N-{(1R)-1-[3,5-bis(trifluoromethyl)phenyl]ethyl}-N-methyl-4-(2-methylphenyl)octahydro-5H-pyrrolo[3,4-c]pyridine-5-carboxamide]",89
14,"CC(c1cc(C(F)(F)F)cc(C(F)(F)F)c1)N(C)C(=O)N1CC[C@@H]2CN(C(=O)C3CCOCC3)C[C@H]2[C@@H]1c1ccc(F)cc1 (mixture of isomers) [Example 7, (3aSR,4RS,7aSR)-N-{1-[3,5-bis(trifluoromethyl)phenyl]ethyl}-4-(4-fluorophenyl)-N-methyl-2-(tetrahydro-2H-pyran-4-ylcarbonyl)octahydro-5H-pyrrolo[3,4-c]pyridine-5-carboxamide]",530
15,"Cc1ccccc1[C@H]1[C@@H]2CN(C(C)C)C[C@H]2CCN1C(=O)N(C)[C@H](C)c1cc(C(F)(F)F)cc(C(F)(F)F)c1 [Example 14, (3aS,4R,7aS)-N-{(1R)-1-[3,5-bis(trifluoromethyl)phenyl]ethyl}-2-isopropyl-N-methyl-4-(2-methylphenyl)octahydro-5H-pyrrolo[3,4-c]pyridine-5-carboxamide]",44
